Numbers after ± are expanded uncertainties.
Settings: Liquid; for mass density: 100 kPa, Buoyancy - hydrostatic balance with magnetic suspension - one sinker

CCCCCn1cc[n+](C)c1.F[B-](F)(F)F [1-methyl-3-pentyl-imidazolium tetrafluoroborate]
Settings	mass density [kg/m3]
263.11 K	1196.7 ± 0.4
268.47 K	1193.07 ± 0.4
273.58 K	1189.42 ± 0.4
278.77 K	1185.81 ± 0.4
283.09 K	1182.43 ± 0.4
288.3 K	1178.63 ± 0.4
292.92 K	1175.26 ± 0.4
298.19 K	1171.74 ± 0.4
303.03 K	1168.37 ± 0.4
308.1 K	1164.61 ± 0.4
313 K	1161.19 ± 0.4
318.13 K	1157.51 ± 0.4
323.84 K	1154.03 ± 0.4
328.48 K	1150.65 ± 0.4
333.48 K	1147.02 ± 0.4
338.25 K	1143.81 ± 0.4
342.51 K	1140.95 ± 0.4
348.51 K	1137.46 ± 0.4
354.03 K	1133.59 ± 0.4
358.73 K	1130.69 ± 0.4
365.22 K	1126.55 ± 0.4

surface tension liquid-gas [mN/m]
Settings	Ring tensiometer	Willhelmy plate method
263.64 K	43.08 ± 0.83	–
269.34 K	42.79 ± 0.83	–
273.78 K	42.67 ± 0.83	–
278.75 K	42.24 ± 0.82	–
283.06 K	–	41.81 ± 0.07
283.1 K	42.19 ± 0.82	–
288.31 K	41.94 ± 0.82	41.58 ± 0.07
292.93 K	–	41.36 ± 0.07
292.94 K	41.69 ± 0.82	–
298.2 K	41.4 ± 0.82	41.1 ± 0.07
303.06 K	–	40.86 ± 0.07
303.07 K	41.17 ± 0.82	–
308.07 K	40.88 ± 0.82	–
308.1 K	–	40.6 ± 0.07
313.01 K	40.64 ± 0.81	–
313.04 K	–	40.36 ± 0.07
318.12 K	40.35 ± 0.81	–
318.17 K	–	40.07 ± 0.07
323.56 K	40.02 ± 0.81	–
323.62 K	–	39.72 ± 0.07
328.29 K	39.81 ± 0.81	–
328.31 K	–	39.45 ± 0.07
333.1 K	–	39.18 ± 0.07
333.29 K	39.49 ± 0.81	–
338.23 K	39.13 ± 0.8	38.94 ± 0.07
342.51 K	38.95 ± 0.8	–
342.52 K	–	38.68 ± 0.07
348.1 K	38.54 ± 0.8	–
348.11 K	–	38.42 ± 0.07
353.72 K	38.21 ± 0.8	–
353.84 K	–	38.09 ± 0.07
358.24 K	38.16 ± 0.8	–
358.37 K	–	37.87 ± 0.07
364.6 K	37.6 ± 0.79	–
364.61 K	–	37.57 ± 0.07

CCCCCCCCCn1cc[n+](C)c1.F[B-](F)(F)F [1-nonyl-3-methylimidazolium tetrafluoroborate]
Settings	mass density [kg/m3]
269.37 K	1108.1 ± 0.39
274.7 K	1104.14 ± 0.39
278.49 K	1101.14 ± 0.39
283.7 K	1097.76 ± 0.39
288.38 K	1094.04 ± 0.39
293.34 K	1090.55 ± 0.39
298.3 K	1087.19 ± 0.39
303.16 K	1084.03 ± 0.39
308.11 K	1080.68 ± 0.39
313.07 K	1077.08 ± 0.39
317.8 K	1073.8 ± 0.39
322.89 K	1070.47 ± 0.38
328.78 K	1067.01 ± 0.38
333.51 K	1063.61 ± 0.38
338.65 K	1060.05 ± 0.38
342.35 K	1057.5 ± 0.38
348.22 K	1053.82 ± 0.38
352.72 K	1050.55 ± 0.38
357.94 K	1047.5 ± 0.38
363.54 K	1043.86 ± 0.38

surface tension liquid-gas [mN/m]
Settings	Ring tensiometer	Willhelmy plate method
269.49 K	33.05 ± 0.53	–
274.62 K	32.75 ± 0.53	–
278.42 K	32.6 ± 0.53	–
283.61 K	–	32.09 ± 0.07
283.73 K	32.33 ± 0.53	–
288.37 K	–	31.88 ± 0.07
288.41 K	32.14 ± 0.52	–
293.36 K	31.82 ± 0.52	31.67 ± 0.07
298.28 K	31.59 ± 0.52	–
298.31 K	–	31.45 ± 0.07
303.11 K	31.38 ± 0.52	–
303.12 K	–	31.29 ± 0.07
308.07 K	31.2 ± 0.52	–
308.11 K	–	31.1 ± 0.07
313.04 K	30.9 ± 0.51	–
313.06 K	–	30.81 ± 0.07
317.79 K	30.65 ± 0.51	–
317.83 K	–	30.66 ± 0.07
322.85 K	30.43 ± 0.51	–
322.9 K	–	30.39 ± 0.07
328.72 K	30.17 ± 0.51	–
328.74 K	–	30.12 ± 0.07
333.58 K	29.92 ± 0.51	29.92 ± 0.07
338.63 K	29.71 ± 0.5	–
338.67 K	–	29.67 ± 0.07
342.37 K	29.49 ± 0.5	–
342.48 K	–	29.52 ± 0.07
348.12 K	–	29.3 ± 0.07
348.21 K	29.22 ± 0.5	–
352.1 K	29.02 ± 0.5	–
353.08 K	–	29.07 ± 0.07
357.88 K	28.83 ± 0.5	–
357.99 K	–	28.86 ± 0.07
363.56 K	28.58 ± 0.49	–
363.61 K	–	28.61 ± 0.07

Reference: the NIST ThermoML archive (doi:10.1016/j.jct.2016.04.008)
